Reference: patent publication US4798821A, “Antihypertensive therapy for diabetics” (Merck & Co., Inc., priority 1987, dated 1989)

Legend:
Format in all cases: in vivo, rat
[1] = system: spontaneously hypertensive (SH) rats; assay: Systolic blood pressure (tail cuff) in spontaneously hypertensive rats; settings: treated SH rats
Description: (§1) In the determination, the following groups of rats were employed, each group consisting of ten rats.
Group 4 Spontaneously hypertensive (SH) rats
Group 5 Spontaneously hypertensive rats treated with cyclopeptide compound
SH rats were commercially available spontaneously hypertensive rats.
(§2) Dosing was initiated with cyclopeptide compound four days after injection of streptozotocin to induce diabetes in the diabetic rats. Dosing was carried out by administering the cyclopeptide compound in the drinking water at a dose of 50 μg/rat/day.
(§3) The rats were housed two to a box and fed standard rat food and water ad libitum. Blood pressure was measured indirectly with a photoelectric system with a tail cuff containing a built in sensor (Harvard Biosciences,Cambridge, MA). The instrument was calibrated on each day of use with a sphygmomanometer. Six to eight recordings were made for each rat.
The blood pressure measurements of treated and untreated spontaneously hypertensive rats compared with normal rats may be seen in FIG. 2.
FIG. 2 is a graph in which the systolic blood pressure of normal, spontaneously hypertensive and treated spontaneously hypertensive rats are plotted against a period of time in days.

[2] = Serum glucose level of treated rats; settings: for Serum Glucose (after 27 days): after 27 days of treatment, mean ± std. dev.
Description: as §1
(§4) Diabetic rats were CD rats in which diabetes was induced by the injection of streptozotocin into the femoral vein at a dose of 60 mg/kg. Hyperglycemia was confirmed by measuring glucose levels in blood obtained by orbital bleeding. (A standard medical technique for obtaining blood form the orbital sinus is described in "Laboratory Animal Medicine" edited by J. G. Fox et al., Academic Press, Inc., Orlando, Fla., 1984.)
as §2, §3
(§5) At the beginning of the experiment, the mean weights of the CD rats were 160 grams and the SH rats were 220 grams. The body weights after 38 days may be seen in Table 1. The serum glucose level, measured after 27 days of treatment also may be seen in Table 1.

[3] = Body weight of treated rats; settings: for Body Weight (after 38 days): mean ± std. dev.
Description: as §1, §4, §2, §3, §5

diabetic rats = assay: Systolic blood pressure (tail cuff) in streptozotocin-diabetic rats; settings: treated diabetic rats
Description: as §1
Group 3 Diabetic rats treated with cyclopeptide compound
Normal rats were commercially available laboratory rats identified as CD rats.
as §4
Dosing was initiated with cyclopeptide compound four days after injection of streptozotocin to induce diabetes in the diabetic rats. […]
as §3
Blood pressure measurements were initated 8 days following injection of streptozotocin (4 days after start of treatment).
FIG. 1 is a graph in which the blood pressures of normal, diabetic and treated diabetic rats are plotted against a period of time in days. (Each point is the mean of 7 to 10 rats±standard deviation.)

[4] = diabetic rat or spontaneously hypertensive rat

Compound: CC(C)[C@@H]1NC(=O)[C@H](CCCCN)NC(=O)[C@@H](Cc2c[nH]c3ccccc23)NC(=O)[C@H](Cc2ccc(O)cc2)NC(=O)[C@H](C)N(C)C(=O)[C@H](Cc2ccccc2)NC1=O [Compound IA, cyclo-(N-MeAla-Tyr-(D)Trp-Lys-Val-Phe)]
- reduction in systolic blood pressure ([1]; 10th day of treatment, P=<0.02): 11%
- inhibition of blood pressure after the 10th day ([1]; after 10th day, even after increasing dose to 200 μg/rat/day on 40th day): no further inhibition was evident
- Serum Glucose (after 27 days) ([2]; Diabetic CD rats (streptozotocin) + Compound IA in drinking water): 352 ± 52 mg %
- Serum Glucose (after 27 days) ([2]; SH rats + Compound IA in drinking water, P = <0.05 relative to normal CD): 90 ± 10 mg %
- effect on serum glucose level (in words) [2, 4]: no significant effect
- Body Weight (after 38 days) ([3]; Diabetic CD rats (streptozotocin) + Compound IA in drinking water, 50 μg/rat/day, doubled to 100 μg/rat/day on 21st day): 281 ± 63 gms
- Body Weight (after 38 days) ([3]; SH rats + Compound IA in drinking water): 285 ± 17 gms
- effect on body weight (in words) [3, 4]: no significant effect
- reduction in blood pressure (diabetic rats; 33rd day of treatment, 100 μg/rat/day from 21st day, P=<0.005): 18%
- reduction in blood pressure (diabetic rats; 38th day of treatment, 100 μg/rat/day from 21st day, P=<0.001): 21%
- reduction in blood pressure (diabetic rats; after 17 days of treatment, 50 μg/rat/day in drinking water, P=<0.05): 14%
